# ChEMBL document CHEMBL4602703, “Lead Optimization of a Pyrrole-Based Dihydroorotate Dehydrogenase Inhibitor Series for the Treatment of Malaria” (J Med Chem, 2020)
# pEC50, pIC50: −log10 of the molar value.
# Columns and labels:
# [1] = Inhibition of N-terminal His6-tagged Plasmodium falciparum DHODH expressed in Escherichia coli BL21(DE3) cells using L-DHO as substrate by DCIP dye based assay
# [2] = Intrinsic clearance in human liver microsomes assessed as per mg protein; format: ADME, Microsome
# [3] = Intrinsic clearance in mouse liver microsomes assessed as per mg protein; format: ADME, Microsome
# [4] = Inhibition of yeast DHODH transformed in Plasmodium falciparum D10 in presence of 10 uM proguanil; design: species or system Saccharomyces cerevisiae
# [5] = tested on: Plasmodium falciparum; format: functional, organism-based; conditions: R10C1B, 72 h
# [6] = tested on: Plasmodium falciparum; experiment: Antimalarial activity against Plasmodium falciparum R1BC1A harboring DHODH L531F mutant measured after 72 hrs by SYBR Green dye based fluorescence assay; format: functional, organism-based
# [7] = tested on: Plasmodium falciparum; experiment: Antimalarial activity against Plasmodium falciparum R1AC1B harboring DHODH C276F mutant measured after 72 hrs by SYBR Green dye based fluorescence assay; format: functional, organism-based
# [8] = tested on: Plasmodium falciparum; format: functional, organism-based; conditions: R2B, 72 h
# [9] = tested on: HepG2; experiment: Cytotoxicity against human HepG2 cells assessed as reduction in cell viability; format: cell-based
# [10] = tested on: L1210; experiment: Cytotoxicity against mouse L1210 cells assessed as reduction in cell viability; format: cell-based
# [11] = biological target: T1, Voltage-gated inwardly rectifying potassium channel KCNH2 (Homo sapiens, UniProt Q12809); experiment: Inhibition of human ERG by patch clamp assay
# T1 sequence (Q12809 whole entry): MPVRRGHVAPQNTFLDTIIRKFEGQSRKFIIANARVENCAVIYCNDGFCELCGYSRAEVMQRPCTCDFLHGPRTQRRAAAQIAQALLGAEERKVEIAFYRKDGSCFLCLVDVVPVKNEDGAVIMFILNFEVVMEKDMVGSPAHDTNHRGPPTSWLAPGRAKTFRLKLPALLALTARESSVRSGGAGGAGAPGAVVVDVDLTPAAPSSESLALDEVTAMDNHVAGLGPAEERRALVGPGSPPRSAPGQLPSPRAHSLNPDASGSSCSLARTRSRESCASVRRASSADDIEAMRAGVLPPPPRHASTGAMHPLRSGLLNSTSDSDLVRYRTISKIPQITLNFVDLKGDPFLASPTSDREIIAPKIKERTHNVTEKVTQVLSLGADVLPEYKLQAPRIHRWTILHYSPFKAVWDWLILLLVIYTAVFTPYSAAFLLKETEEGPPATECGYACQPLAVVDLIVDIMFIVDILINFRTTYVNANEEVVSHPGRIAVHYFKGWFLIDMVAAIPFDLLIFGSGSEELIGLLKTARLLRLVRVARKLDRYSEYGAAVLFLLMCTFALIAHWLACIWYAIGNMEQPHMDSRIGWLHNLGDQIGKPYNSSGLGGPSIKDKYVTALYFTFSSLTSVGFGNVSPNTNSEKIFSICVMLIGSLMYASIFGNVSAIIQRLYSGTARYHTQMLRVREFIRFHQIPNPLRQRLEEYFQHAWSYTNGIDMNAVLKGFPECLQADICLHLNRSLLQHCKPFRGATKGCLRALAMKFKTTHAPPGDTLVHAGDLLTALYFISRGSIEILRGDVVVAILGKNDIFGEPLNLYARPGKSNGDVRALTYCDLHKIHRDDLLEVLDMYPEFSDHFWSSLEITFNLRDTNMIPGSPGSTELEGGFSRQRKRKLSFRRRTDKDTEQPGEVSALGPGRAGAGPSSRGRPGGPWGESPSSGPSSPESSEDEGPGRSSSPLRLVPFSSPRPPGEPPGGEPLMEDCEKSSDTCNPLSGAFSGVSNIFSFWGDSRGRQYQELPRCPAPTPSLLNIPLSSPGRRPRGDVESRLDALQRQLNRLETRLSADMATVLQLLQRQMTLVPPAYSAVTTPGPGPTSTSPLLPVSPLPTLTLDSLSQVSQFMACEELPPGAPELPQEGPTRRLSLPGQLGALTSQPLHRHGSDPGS
# [12] = biological target: T1, Voltage-gated inwardly rectifying potassium channel KCNH2; experiment: Inhibition of human ERG by IonWorks patch clamp electrophysiology assay
# [13] = Protein binding in rat plasma by LC-MS analysis based ultracentrifugation assay; format: ADME, cell-free; conditions: read-out: PPB (converted)
# [14] = biological target: T2, Albumin (Homo sapiens, UniProt P02768); experiment: Binding affinity to albumin (unknown origin) in ALBUMAX medium; format: ADME; conditions: read-out: PB (converted)
# T2 sequence (P02768 whole entry): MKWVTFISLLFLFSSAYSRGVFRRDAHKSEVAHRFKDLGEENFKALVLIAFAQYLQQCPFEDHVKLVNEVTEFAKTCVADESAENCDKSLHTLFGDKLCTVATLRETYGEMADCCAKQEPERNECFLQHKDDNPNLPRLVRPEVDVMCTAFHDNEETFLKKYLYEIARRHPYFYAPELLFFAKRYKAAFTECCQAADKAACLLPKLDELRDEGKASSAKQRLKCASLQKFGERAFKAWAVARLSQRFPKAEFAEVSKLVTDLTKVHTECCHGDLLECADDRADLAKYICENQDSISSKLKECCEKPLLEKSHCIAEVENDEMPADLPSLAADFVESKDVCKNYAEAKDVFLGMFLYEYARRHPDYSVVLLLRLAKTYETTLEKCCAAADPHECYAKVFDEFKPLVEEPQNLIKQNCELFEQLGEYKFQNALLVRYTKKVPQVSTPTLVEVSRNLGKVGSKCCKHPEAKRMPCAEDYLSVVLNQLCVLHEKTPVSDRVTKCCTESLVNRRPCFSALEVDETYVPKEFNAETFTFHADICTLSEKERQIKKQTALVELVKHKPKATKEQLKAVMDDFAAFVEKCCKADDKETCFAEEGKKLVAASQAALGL
# [15] = Protein binding in human liver microsomes by LC-MS analysis based ultracentrifugation assay; format: ADME, Microsome; conditions: read-out: PB (converted)
# [16] = Protein binding in DMEM medium containing 10% fetal calf serum by LC-MS analysis based ultracentrifugation assay; format: ADME, cell-free, Bos taurus; conditions: cattle, serum
# [17] = Apparent half life in Swiss mouse at 10 mg/kg, po by LC-MS analysis; format: ADME, organism-based; conditions: in vivo, read-out: t1/2(app) (converted)
# [18] = Cmax in Swiss mouse at 10 mg/kg, po by LC-MS analysis; format: ADME, organism-based; design: dose 10 mg/kg, route oral; conditions: in vivo
# [19] = AUC (0 to infinity) in Swiss mouse at 10 mg/kg, po by LC-MS analysis; format: ADME, organism-based; design: dose 10 mg/kg, route oral, time infinity; conditions: in vivo
# [20] = Oral bioavailability in Swiss mouse at 10 mg/kg by LC-MS analysis; format: ADME, organism-based; conditions: in vivo
# [21] = Clearance in Sprague-Dawley rat plasma at […], iv by LC-MS analysis; format: ADME, organism-based; conditions: in vivo
# [22] = Cmax in Sprague-Dawley rat at 18.8 mg/kg, po by LC-MS analysis; format: ADME, organism-based; design: dose 18.8 mg/kg, route oral; conditions: in vivo
# [23] = tested on: Plasmodium falciparum; experiment: Antimalarial activity against Plasmodium falciparum 3D70087/N9 infected in po dosed NOD-SCID IL2Rgamma null mouse administered BID for 4 days by flow cytometric analysis; format: functional; conditions: 3D70087/N9, po, 96 h
# [24] = fAUC in Plasmodium falciparum 3D70087/N9 infected po dosed NOD-SCID IL2Rgamma null mouse blood administered once daily for 4 days; format: ADME, organism-based; conditions: in vivo, 96 h
# [25] = biological target: T2, Albumin; experiment: Binding affinity to albumin (unknown origin) by chromatographic method; format: ADME; conditions: for fraction unbound: albumin, read-out: PB (converted)
# [26] = simulated gi fluid, pH 5.8
# [27] = tested on: Plasmodium falciparum
# [28] = in vivo; conditions: Swiss, mouse, po, 10 mg/kg
# [29] = in vivo; conditions: Sprague-Dawley, rat, po
# [30] = physchem; conditions: fasted state simulated gastric fluid, pH 1.6
# [31] = physchem; conditions: fasted state simulated intestinal fluid, pH 6.5
# [32] = physchem; conditions: PBS, pH 7.4
# [33] = tested on: Plasmodium falciparum; experiment: animal or person; conditions: for pEC50: 3D70087/N9, 96 h
# [34] = tested on: Plasmodium falciparum; experiment: microbe, parasite or virus in culture; conditions: 3D7, 72 h
# [35] = tested on: Plasmodium falciparum; experiment: microbe, parasite or virus in culture; conditions: 1D3, 72 h
# [36] = Intrinsic clearance in liver microsomes assessed as per mg protein; conditions: read-out: CLH
# [37] = tested on: Plasmodium falciparum; experiment: Antimalarial activity against Plasmodium falciparum 3D70087/N9 infected in NOD-SCID IL2Rgamma null mouse assessed as blood AUC level require to show 90% reduction in parasitemia administered administered once daily for 4 days; format: functional, organism-based
# [38] = biological target: T3, Dihydroorotate dehydrogenase (quinone), mitochondrial (Homo sapiens, UniProt Q02127)
# T3 sequence (Q02127 whole entry): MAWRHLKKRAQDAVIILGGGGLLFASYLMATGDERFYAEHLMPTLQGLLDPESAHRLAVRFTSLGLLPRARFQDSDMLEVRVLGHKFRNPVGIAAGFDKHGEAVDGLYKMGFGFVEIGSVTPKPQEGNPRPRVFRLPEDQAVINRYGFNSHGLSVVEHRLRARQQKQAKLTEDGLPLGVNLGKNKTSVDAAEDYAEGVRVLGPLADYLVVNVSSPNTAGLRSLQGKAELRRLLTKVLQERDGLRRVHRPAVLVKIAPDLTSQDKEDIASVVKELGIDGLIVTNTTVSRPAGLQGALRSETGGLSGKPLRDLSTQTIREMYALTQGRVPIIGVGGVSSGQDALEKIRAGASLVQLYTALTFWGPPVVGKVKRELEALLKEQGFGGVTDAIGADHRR
# [39] = biological target: Dihydroorotate dehydrogenase (quinone), mitochondrial (Mus musculus, UniProt O35435)
# Chain of Dihydroorotate dehydrogenase (quinone), mitochondrial (Mus musculus, UniProt O35435) (O35435 whole entry): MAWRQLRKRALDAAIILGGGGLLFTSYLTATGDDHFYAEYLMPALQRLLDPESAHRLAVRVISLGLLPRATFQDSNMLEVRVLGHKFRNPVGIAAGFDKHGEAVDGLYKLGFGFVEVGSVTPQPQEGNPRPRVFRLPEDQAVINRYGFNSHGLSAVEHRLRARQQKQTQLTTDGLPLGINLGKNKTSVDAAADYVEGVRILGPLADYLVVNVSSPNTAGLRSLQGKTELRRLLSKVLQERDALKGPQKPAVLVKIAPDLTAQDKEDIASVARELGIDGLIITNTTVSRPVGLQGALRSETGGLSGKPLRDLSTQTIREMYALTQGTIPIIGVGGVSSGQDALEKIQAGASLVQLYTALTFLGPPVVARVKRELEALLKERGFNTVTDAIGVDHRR
# [40] = biological target: Dihydroorotate dehydrogenase (quinone), mitochondrial (Rattus norvegicus, UniProt Q63707)
# Chain of Dihydroorotate dehydrogenase (quinone), mitochondrial (Rattus norvegicus, UniProt Q63707) (Q63707 whole entry): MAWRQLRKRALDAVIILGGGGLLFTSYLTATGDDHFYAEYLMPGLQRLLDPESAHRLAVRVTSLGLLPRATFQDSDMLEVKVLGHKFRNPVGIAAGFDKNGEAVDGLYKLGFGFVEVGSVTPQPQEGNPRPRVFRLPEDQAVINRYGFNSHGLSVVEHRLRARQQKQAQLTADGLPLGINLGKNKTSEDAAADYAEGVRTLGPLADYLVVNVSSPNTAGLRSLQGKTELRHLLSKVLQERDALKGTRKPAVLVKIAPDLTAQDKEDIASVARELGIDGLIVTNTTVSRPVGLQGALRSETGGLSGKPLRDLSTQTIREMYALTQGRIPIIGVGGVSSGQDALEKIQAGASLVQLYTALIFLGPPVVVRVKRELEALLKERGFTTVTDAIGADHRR
# [41] = physchem; conditions: octanol/water, pH 7.4
# [42] = Inhibition of C-terminal His6-tagged Plasmodium falciparum DHODH expressed in Escherichia coli BL21(DE3) cells using L-DHO as substrate after 20 mins by 2,6-dichloroindophenol reduction based assay
# [43] = biological target: T3, Dihydroorotate dehydrogenase (quinone), mitochondrial; experiment: Inhibition of C-terminal His6-tagged human DHODH (30 to 396 residues) expressed in Escherichia coli BL21(DE3) cells using L-DHO as substrate after 20 mins by 2,6-dichloroindophenol reduction based assay
smiles,measurement,setting,value
Cc1cc(Nc2ccc(S(F)(F)(F)(F)F)cc2)n2nc(C(C)(F)F)nc2n1 [DSM-265],pIC50,[1],7.52
same,microsomal CLint,[2],< 7 µL/min/mg
same,microsomal CLint,"[3]; liver microsomes, read-out: CLH",7 to 8 µL/min/mg
same,pEC50,[4],< 4.70
same,pEC50,[5],6.82 to 6.92
same,pEC50,[6],6.96 to 7.10
same,pEC50,[7],6.77
same,pEC50,[8],6.82 to 7.13
same,CC50,[9],> 50000 nM
same,CC50,[10],> 50000 nM
same,pEC50,[11],5.80
same,pEC50,[12],5.15
same,fraction unbound,[13],0.03
same,fraction unbound,[14],0.169
same,fraction unbound,[15],0.283
same,PB,[16],78.5%
same,half-life,[17],2.4 h
same,Cmax,[18],3.94 µM
same,AUC(0-inf),[19],29.7 µM·h
same,bioavailability,[20],61%
same,clearance,[21],6.5 mL/min/kg
same,Cmax,[22],3.95 µM
same,ED90,[23],3 mg/kg/day
same,fAUC,[24],15 to 23 ng·h/mL
same,PB,[25]; isolated protein,97.4%
same,solubility,[26],27.6 µg/mL
same,fEC50,[27],0.001 µM
same,Tmax,[28],1 to 2 h
same,Tmax,[29],3.3 h
same,solubility,[30],6.8 µg/mL
same,solubility,[31],5.1 µg/mL
same,solubility,[32],2 µg/mL
same,pEC50,[33],8.22
same,pEC50,[34],8.22
same,pEC50,[35],7.64
same,microsomal CLint,[36],< 7 µL/min/mg
Cc1cc(Nc2ccc(C(F)(F)F)nc2)n2nc(C(C)(F)F)nc2n1,AUCED90,[37],12.9 µg·h/mL
same,fAUC,[24],250 ng·h/mL
same,fEC50,[27],0.007 µM
same,pEC50,[33],7.85
same,ED90,"[33]; 3D70087/N9, in Mus musculus, po, 96 h",2.6 mg/kg/day
CCOC(=O)c1[nH]c(C)c(Cc2ccc(C(F)(F)F)cc2)c1C,pIC50,[38],< 4.00
same,pIC50,[39],< 4.00
same,pIC50,[40],< 4.00
same,pEC50,[34],7.15 to 7.21
CCOC(=O)c1[nH]c(C)c(Cc2ccc(OC)cc2)c1C,pIC50,[1],6.28
same,pIC50,[38],< 4.00
same,pIC50,[39],< 4.00
same,pIC50,[40],< 4.00
same,pEC50,[34],6.23
Cc1c(Cc2ccc(C(F)(F)F)nc2)c[nH]c1C(=O)N1CC(F)(F)C1,pIC50,[1],7.48
same,microsomal CLint,[2],21 µL/min/mg
same,microsomal CLint,[3]; microsomes,94 µL/min/mg
same,fraction unbound,[25],0.251
same,pIC50,[38],< 4.00
same,pIC50,[39],< 4.00
same,pIC50,[40],< 4.00
same,logD,[41],3.3
same,pEC50,[34],7.54
Cc1c(Cc2ccc(C(F)(F)F)nc2)c[nH]c1C(=O)NC1CCC1,pIC50,[1],7.36
same,microsomal CLint,[2],29 µL/min/mg
same,microsomal CLint,[3]; microsomes,204 µL/min/mg
same,fraction unbound,[25],0.165
same,pIC50,[38],< 4.00
same,logD,[41],3.2
same,pEC50,[34],7.57
Cc1nc2cc(OC(F)(F)F)ccc2n1-c1ccc(C(=O)NC2CC2)s1,pIC50,[42],7.66
same,pIC50,[43],< 4.52
same,pEC50,[34],8.15
Cc1c(Cc2ccc(C(F)(F)F)nc2)c[nH]c1C(=O)NCC(F)(F)F,pIC50,[1],6.68
same,microsomal CLint,[2],15 µL/min/mg
same,microsomal CLint,[3]; microsomes,57 µL/min/mg
same,fraction unbound,[25],0.181
same,pIC50,[38],< 4.00
same,logD,[41],3.3
same,pEC50,[34],7.23 to 7.36
Cc1c(Cc2ccc(C(F)(F)F)cc2Cl)c[nH]c1C(=O)NC1CC1,pIC50,[1],7.77
same,microsomal CLint,[2],14 µL/min/mg
same,microsomal CLint,[3]; microsomes,264 µL/min/mg
same,fraction unbound,[25],0.019
same,pIC50,[38],< 4.00
same,logD,[41],4.1
same,pEC50,[34],7.70
CCOC(=O)c1[nH]c(C)c(Cc2ccc(C(F)(F)F)nc2)c1C,microsomal CLint,[2],286 µL/min/mg
same,microsomal CLint,[3]; microsomes,779 µL/min/mg
same,fraction unbound,[25],0.064
same,pIC50,[38],< 4.00
same,pIC50,[39],< 4.00
same,pIC50,[40],< 4.00
same,logD,[41],3.7
same,pEC50,[34],8.04
